Test results from US9017985B2, “Photosynthetic microorganisms enriched in selenium using selenohydroxy acid compounds, used thereof in nutrition, cosmetics and pharmacy” (Metabolium, priority 2008, dated 2015).

Key:
[1] = diet supplementation; cited from earlier work
[2] = system: Chlorella vulgaris SAG211-11B; experiment: Selenium enrichment of Chlorella vulgaris microalga cultured with a selenium source, mixotrophic conditions; analysis of selenium components; format: cell-based; details: 20 mgSe/l added once in exponential growth phase; 7 days incubation; mean of triplicate
Procedure: In these tests, the strain used is a strain of Chlorella vulgaris SAG211-11B: an axenic strain originating from the SAG collection of the University of Göttingen (SAG: Sammlung von Algenkulturen der Universität Göttingen [Collection of Alga Cultures of the University of Göttingen]) which was cultured under mixotrophic conditions in the following medium:
(§1) The pH was adjusted to 7.2 and the medium was autoclaved at 121° C. for 15 minutes.
The organic source of selenium, namely 2-hydroxy-4-methylselenobutanoic acid (THD-177, Tetrahedron SAS, France, CAS: 873660-49-2) was administered at a concentration of 20 mg/l on a selenium equivalent basis, i.e. 50 mg/l of 2-hydroxy-4-methylselenobutanoic acid.
The inorganic selenium source ([…], sodium selenite) was administered at a concentration of 20 mg/l on a selenium equivalent basis, i.e. 43.9 mg/l of sodium selenite.
The compound containing selenium was added just one time in the exponential growth phase of the Chlorella vulgaris strain (i.e. 3 days after the inoculation).
(§2) After incubation for 7 days, the medium was filtered through a 0.2 micron Nalgene membrane (Ref a-PES, diameter 90 mm), and the cell retentate was rinsed with physiological saline. The wet cell mass was lyophilized for analysis of the constituents containing selenium (total selenium, selenomethionine and sodium selenite).
(§3) The total selenium was assayed by ICP coupled to detection by mass, after mineralization of the sample. The speciation of the selenium was carried out by high performance liquid chromatography coupled to tandem mass detection, after enzyme digestion of the sample, according to the method described by Lobinsky et al., in Mester, Z. et al. (2006) Annal. Bioanal. Chem. 385: 168-180.
Table 1 below indicates the average values, on a selenium equivalent basis, obtained in triplicate for incubation times of 7 days.

[3] = system: Arthrospira platensis 3054-E0001; experiment: Selenium enrichment of Arthrospira platensis microalga cultured with a selenium source, autotrophic conditions; analysis of selenium components; format: cell-based; details: 25 mgSe/l added once just after inoculation (T=0); 10 days incubation; mean of triplicate
Procedure: In these tests, the strain used is a strain of Arthrospira platensis 3054-E0001.
The 3054-50001 strain was cultured under autotrophic conditions in the following medium:
as §1
The organic source of selenium, namely 2-hydroxy-4-methylselenobutanoic acid (THD-177, Tetrahedron SAS, France, CAS: 873660-49-2) was administered at a concentration of 25 mg/l on a selenium equivalent basis, i.e. 62.5 mg/l of 2-hydroxy-4-methylselenobutanoic acid.
The inorganic selenium source ([…], sodium selenite) was administered at a concentration of 25 mg/l on a selenium equivalent basis, i.e. 54.4 mg/l of sodium selenite.
The compound containing selenium was added just one time, just after the inoculation with the Arthrospira platensis strain (i.e. T=0).
as §2, with “10” for “7”, “cell pellet” for “medium”, “membrane,” for “membrane (Ref a-PES, diameter 90 mm),”
as §3
Table 2 below indicates the average values, on a selenium equivalent basis, obtained in triplicate for incubation times of 10 days.
In these tests, the strain used is a strain of Arthrospira platensis 3054-E0001. […]

Row | Compound | Toxicity compared with an intake in the form of sodium selenite [1] | Se(IV) [2] [mgSe/kg biomass] | SeMethionine [2] [mgSe/kg biomass] | Total Se [2] [mgSe/kg biomass] | Se(IV) [3] [mgSe/kg biomass] | SeMethionine [3] [mgSe/kg biomass] | Total Se [3] [mgSe/kg biomass]
1 | C[Se]CC[C@H](N)C(=O)O [L(+)-selenomethionine] | much less toxic |  |  |  |  |  | 
2 | O=[Se](O)O [NaSe, sodium selenite] |  | 4.1 ± 0.4 | 29 ± 2 | 144 ± 5 | 5.1 ± 0.3 | 13 ± 3 | 177 ± 2
